Measurements reported in ChEMBL document CHEMBL1949623, “Camphorsulfonic acid catalysed facile tandem double Friedlander annulation protocol for the synthesis of phenoxy linked bisquinoline derivatives and discovery of antitubercular agents” (Bioorg Med Chem Lett, 2012).
Values after ≈ are worked out from the molar mass of the structure shown.

system: Mycobacterium tuberculosis; assay: Ratio of Ethambutol MIC to compound MIC for multi-drug-resistant Mycobacterium tuberculosis H37Rv clinical isolate; format: functional; details: not given

Compound	Ratio
Clc1ccc2nc(-c3ccc(Oc4c(-c5ccc(Br)cc5)nc5ccc(Cl)cc5c4-c4ccccc4)cc3)cc(-c3ccccc3)c2c1	3.45

system: Mycobacterium tuberculosis; assay: Ratio of Ciprofloxacin MIC to compound MIC for multi-drug-resistant Mycobacterium tuberculosis H37Rv clinical isolate; format: functional; details: not given

Compound	Ratio
Clc1ccc2nc(-c3ccc(Oc4c(-c5ccc(Br)cc5)nc5ccc(Cl)cc5c4-c4ccccc4)cc3)cc(-c3ccccc3)c2c1	2.14
Clc1ccc2nc(-c3ccc(Oc4c(-c5cccc(Br)c5)nc5ccc(Cl)cc5c4-c4ccccc4)cc3)cc(-c3ccccc3)c2c1	4.27

system: Mycobacterium tuberculosis; assay: Antitubercular activity against multi-drug-resistant Mycobacterium tuberculosis H37Rv clinical isolate after 28 days by 10 fold serial dilution method; format: functional; details: 672 h

Compound	MIC [µM]
Clc1cccc(-c2nc3ccccc3c(-c3ccccc3)c2Oc2ccc(-c3cc(-c4ccccc4)c4ccccc4n3)cc2)c1	20.5 (≈ 12.5 µg/mL)
CC(=O)c1ccc(Oc2c(-c3ccccc3)nc3ccc(Cl)cc3c2-c2ccccc2)cc1	55.6 (≈ 25 µg/mL)
CO[C@H]1/C=C/O[C@@]2(C)Oc3c(C)c(O)c4c(O)c(c(/C=N/N5CCN(C)CC5)c(O)c4c3C2=O)NC(=O)/C(C)=C\C=C\[C@H](C)[C@H](O)[C@@H](C)[C@@H](O)[C@@H](C)[C@H](OC(C)=O)[C@@H]1C [RIFAMPIN]	0.1 (≈ 0.0823 µg/mL)
Cc1ccc(-c2nc3ccc(Cl)cc3c(-c3ccccc3)c2Oc2ccc(-c3cc(-c4ccccc4)c4cc(Cl)ccc4n3)cc2)cc1	37.9 (≈ 25 µg/mL)
Clc1ccc2nc(-c3ccc(Oc4c(-c5ccc6ccccc6c5)nc5ccc(Cl)cc5c4-c4ccccc4)cc3)cc(-c3ccccc3)c2c1	35.9 (≈ 25 µg/mL)
CC(=O)c1ccc(Oc2c(-c3ccc(C)cc3)nc3ccc(Cl)cc3c2-c2ccccc2)cc1	53.8 (≈ 25 µg/mL)
CC(=O)c1ccc(Oc2c(-c3ccc4ccccc4c3)nc3ccc(Cl)cc3c2-c2ccccc2)cc1	50 (≈ 25 µg/mL)
Clc1ccc(-c2nc3ccccc3c(-c3ccccc3)c2Oc2ccc(-c3cc(-c4ccccc4)c4ccccc4n3)cc2)cc1	20.5 (≈ 12.5 µg/mL)
Cc1ccc(-c2nc3ccccc3c(-c3ccccc3)c2Oc2ccc(-c3cc(-c4ccccc4)c4ccccc4n3)cc2)cc1	42.3 (≈ 25 µg/mL)
CC[C@@H](CO)NCCN[C@@H](CC)CO [ETHAMBUTOL]	7.6 (≈ 1.55 µg/mL)
COc1cccc(-c2nc3ccccc3c(-c3ccccc3)c2Oc2ccc(-c3cc(-c4ccccc4)c4ccccc4n3)cc2)c1	41.2 (≈ 25 µg/mL)
c1ccc(-c2cc(-c3ccc(Oc4c(-c5ccc6ccccc6c5)nc5ccccc5c4-c4ccccc4)cc3)nc3ccccc23)cc1	39.9 (≈ 25 µg/mL)
CC(=O)c1ccc(Oc2c(-c3ccc(Br)cc3)nc3ccc(Cl)cc3c2-c2ccccc2)cc1	47.3 (≈ 25 µg/mL)
COc1ccc(-c2nc3ccccc3c(-c3ccccc3)c2Oc2ccc(-c3cc(-c4ccccc4)c4ccccc4n3)cc2)cc1	41.2 (≈ 25 µg/mL)
NC(=O)c1cnccn1 [PYRAZINAMIDE]	50.8 (≈ 6.25 µg/mL)
NNC(=O)c1ccncc1 [ISONIAZID]	0.4 (≈ 0.0549 µg/mL)
c1ccc(-c2ccc(-c3nc4ccccc4c(-c4ccccc4)c3Oc3ccc(-c4cc(-c5ccccc5)c5ccccc5n4)cc3)cc2)cc1	19.1 (≈ 12.5 µg/mL)
Brc1cccc(-c2nc3ccccc3c(-c3ccccc3)c2Oc2ccc(-c3cc(-c4ccccc4)c4ccccc4n3)cc2)c1	4.7 (≈ 3.08 µg/mL)
c1ccc(-c2nc3ccccc3c(-c3ccccc3)c2Oc2ccc(-c3cc(-c4ccccc4)c4ccccc4n3)cc2)cc1	43.4 (≈ 25 µg/mL)
c1ccc(-c2cc(-c3ccc(Oc4c(-c5cccc6ccccc56)nc5ccccc5c4-c4ccccc4)cc3)nc3ccccc23)cc1	39.8 (≈ 24.9 µg/mL)
Clc1ccc2nc(-c3ccc(Oc4c(-c5ccc(Br)cc5)nc5ccc(Cl)cc5c4-c4ccccc4)cc3)cc(-c3ccccc3)c2c1	2.2 (≈ 1.59 µg/mL)
Clc1ccc2nc(-c3ccc(Oc4c(-c5cccc(Br)c5)nc5ccc(Cl)cc5c4-c4ccccc4)cc3)cc(-c3ccccc3)c2c1	1.1 (≈ 0.797 µg/mL)
Brc1ccc(-c2nc3ccccc3c(-c3ccccc3)c2Oc2ccc(-c3cc(-c4ccccc4)c4ccccc4n3)cc2)cc1	19.1 (≈ 12.5 µg/mL)
Clc1ccc2nc(-c3ccc(Oc4c(-c5ccccc5)nc5ccc(Cl)cc5c4-c4ccccc4)cc3)cc(-c3ccccc3)c2c1	19.4 (≈ 12.5 µg/mL)
CC(=O)c1ccc(Oc2c(-c3cccc(Br)c3)nc3ccc(Cl)cc3c2-c2ccccc2)cc1	11.8 (≈ 6.24 µg/mL)
Clc1ccc(-c2nc3ccc(Cl)cc3c(-c3ccccc3)c2Oc2ccc(-c3cc(-c4ccccc4)c4cc(Cl)ccc4n3)cc2)cc1	4.6 (≈ 3.13 µg/mL)
CC(=O)c1ccc(Oc2c(-c3ccc(Cl)cc3)nc3ccc(Cl)cc3c2-c2ccccc2)cc1	51.6 (≈ 25 µg/mL)
